In US7964531B2, “3-phenoxy-4-pyridazinol derivatives and herbicidal composition containing the same” (Mitsui Chemicals Agro, Inc., priority 2001, dated 2011):

Key:
Assay type in all cases: in vivo
Conditions in all cases: wettable powder applied 3 days after transplanting, judged after 25 days
[1] = tested on: transplanted paddy-field rice; assay: Test Example 1: crop injury against transplanted paddy-field rice
In short: (§1)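 Paddy soil pots sown with dormancy-broken weed seeds mixed into the top 1 cm, plus germinated Cyperus serotinus tubers and transplanted 2.2-leaf rice seedlings, grown flooded in a greenhouse. Water-diluted wettable powder applied 3 days after transplanting; growth inhibition scored 25 days later on a 0–5 scale (0 = 0–10%, 5 = 91–100%).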

[2] = tested on: barnyardgrass (Echinochloa oryzicola Vasing.); assay: Test Example 1: herbicidal effects, paddy-field pot test
In short: as §1

[3] = tested on: annual broad-leaved weeds (Lindernia spp., Rotala indica); assay: as above
In short: as §1

Scirpus joncoides = assay: as above
In short: as §1

Cyperus serotinus = assay: as above
In short: as §1

SMILES	Crop injury against transplanted rice ([1]; chemical dosage 10 g/a)	Crop injury against transplanted rice ([1]; chemical dosage 20 g/a)	Herbicidal effects Barnyard grass ([2]; chemical dosage 10 g/a)	Herbicidal effects Barnyard grass ([2]; chemical dosage 20 g/a)	Herbicidal effects Broad leaf ([3]; chemical dosage 10 g/a)	Herbicidal effects Broad leaf ([3]; chemical dosage 20 g/a)	Herbicidal effects Scirpus joncoides (Scirpus joncoides; chemical dosage 10 g/a)	Herbicidal effects Scirpus joncoides (Scirpus joncoides; chemical dosage 20 g/a)	Herbicidal effects Cyperus serotinus (Cyperus serotinus; chemical dosage 10 g/a)	Herbicidal effects Cyperus serotinus (Cyperus serotinus; chemical dosage 20 g/a)	Crop injury against transplanted rice ([1]; chemical dosage 12.5 g/a)	Crop injury against transplanted rice ([1]; chemical dosage 25 g/a)	Herbicidal effects Barnyard grass ([2]; chemical dosage 12.5 g/a)	Herbicidal effects Barnyard grass ([2]; chemical dosage 25 g/a)	Herbicidal effects Broad leaf ([3]; chemical dosage 12.5 g/a)	Herbicidal effects Broad leaf ([3]; chemical dosage 25 g/a)	Herbicidal effects Scirpus joncoides (Scirpus joncoides; chemical dosage 12.5 g/a)	Herbicidal effects Scirpus joncoides (Scirpus joncoides; chemical dosage 25 g/a)	Herbicidal effects Cyperus serotinus (Cyperus serotinus; chemical dosage 12.5 g/a)	Herbicidal effects Cyperus serotinus (Cyperus serotinus; chemical dosage 25 g/a)
Cc1ccc(C2CC2)c(Oc2nnc(Cl)cc2O)c1 [Example 218]	0 (Growth inhibition rate; 0 to 10%)	0 (Growth inhibition rate; 0 to 10%)	0 (Growth inhibition rate; 0 to 10%)	1 (Growth inhibition rate; 11 to 30%)	5 (Growth inhibition rate; 91 to 100%)	5 (Growth inhibition rate; 91 to 100%)	5 (Growth inhibition rate; 91 to 100%)	5 (Growth inhibition rate; 91 to 100%)	5 (Growth inhibition rate; 91 to 100%)	5 (Growth inhibition rate; 91 to 100%)	–	–	–	–	–	–	–	–	–	–
Oc1cc(Cl)nnc1Oc1c(F)cccc1Cl [Example 232]	0 (Growth inhibition rate; 0 to 10%)	0 (Growth inhibition rate; 0 to 10%)	4 (Growth inhibition rate; 71 to 90%)	4 (Growth inhibition rate; 71 to 90%)	5 (Growth inhibition rate; 91 to 100%)	5 (Growth inhibition rate; 91 to 100%)	3 (Growth inhibition rate; 51 to 70%)	4 (Growth inhibition rate; 71 to 90%)	4 (Growth inhibition rate; 71 to 90%)	5 (Growth inhibition rate; 91 to 100%)	–	–	–	–	–	–	–	–	–	–
Oc1cc(Cl)nnc1Oc1c(F)cccc1Br [Example 233]	0 (Growth inhibition rate; 0 to 10%)	0 (Growth inhibition rate; 0 to 10%)	3 (Growth inhibition rate; 51 to 70%)	4 (Growth inhibition rate; 71 to 90%)	4 (Growth inhibition rate; 71 to 90%)	5 (Growth inhibition rate; 91 to 100%)	3 (Growth inhibition rate; 51 to 70%)	5 (Growth inhibition rate; 91 to 100%)	4 (Growth inhibition rate; 71 to 90%)	5 (Growth inhibition rate; 91 to 100%)	–	–	–	–	–	–	–	–	–	–
CCCc1cccc(F)c1Oc1nnc(Cl)cc1O [Example 234]	–	–	–	–	–	–	–	–	–	–	0 (Growth inhibition rate; 0 to 10%)	0 (Growth inhibition rate; 0 to 10%)	0 (Growth inhibition rate; 0 to 10%)	0 (Growth inhibition rate; 0 to 10%)	5 (Growth inhibition rate; 91 to 100%)	5 (Growth inhibition rate; 91 to 100%)	3 (Growth inhibition rate; 51 to 70%)	4 (Growth inhibition rate; 71 to 90%)	5 (Growth inhibition rate; 91 to 100%)	5 (Growth inhibition rate; 91 to 100%)
CC(C)c1cccc(F)c1Oc1nnc(Cl)cc1O [Example 235]	0 (Growth inhibition rate; 0 to 10%)	0 (Growth inhibition rate; 0 to 10%)	3 (Growth inhibition rate; 51 to 70%)	3 (Growth inhibition rate; 51 to 70%)	5 (Growth inhibition rate; 91 to 100%)	5 (Growth inhibition rate; 91 to 100%)	5 (Growth inhibition rate; 91 to 100%)	5 (Growth inhibition rate; 91 to 100%)	5 (Growth inhibition rate; 91 to 100%)	5 (Growth inhibition rate; 91 to 100%)	–	–	–	–	–	–	–	–	–	–
COc1cccc(F)c1Oc1nnc(Cl)cc1O [Example 239]	–	0 (Growth inhibition rate; 0 to 10%)	–	0 (Growth inhibition rate; 0 to 10%)	–	5 (Growth inhibition rate; 91 to 100%)	–	5 (Growth inhibition rate; 91 to 100%)	–	4 (Growth inhibition rate; 71 to 90%)	–	–	–	–	–	–	–	–	–	–
Oc1cc(Cl)nnc1Oc1c(Cl)cccc1Cl [Example 240]	–	–	–	–	–	–	–	–	–	–	0 (Growth inhibition rate; 0 to 10%)	0 (Growth inhibition rate; 0 to 10%)	2 (Growth inhibition rate; 31 to 50%)	3 (Growth inhibition rate; 51 to 70%)	5 (Growth inhibition rate; 91 to 100%)	5 (Growth inhibition rate; 91 to 100%)	3 (Growth inhibition rate; 51 to 70%)	4 (Growth inhibition rate; 71 to 90%)	5 (Growth inhibition rate; 91 to 100%)	5 (Growth inhibition rate; 91 to 100%)
